The assay has as its target T1, recombinant human Flag-tagged PARP7 (amino acids 456-657) (Homo sapiens, UniProt Q7Z3E1).
T1 construct: recombinant human Flag-tagged PARP7 (amino acids 456-657)
T1 sequence (Q7Z3E1 456-657): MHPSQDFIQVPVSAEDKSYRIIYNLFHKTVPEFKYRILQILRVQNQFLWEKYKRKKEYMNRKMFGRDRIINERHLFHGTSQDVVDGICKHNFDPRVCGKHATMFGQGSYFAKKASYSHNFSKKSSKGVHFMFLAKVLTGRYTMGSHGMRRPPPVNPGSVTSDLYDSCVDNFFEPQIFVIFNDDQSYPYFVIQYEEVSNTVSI
Nature of the assay: PARP7 biochemical DELFIA assay (auto-MARylation). The note with it: DELFIA readout, IC50 class. Put shortly: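 Readout is DELFIA time-resolved Eu fluorescence (Ex337 nm, Em620 nm) of biotin-ADP-ribose on immobilised Flag-tagged PARP7 456-657. Enzyme (12.5-37.5 nM as added) sat 30 min with compound before biotin-NAD+ (15 μM solution, pH 7.5 HEPES buffer) started 2-3 h room-temperature self-modification, stopped with excess NAD+.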

pIC50: −log10 of the molar value.

Broadly, the pIC50 is −log10 of the IC50, conventionally taken in molar units. Turning to `O=C(CCOCCc1cc(F)cc2c(=O)[nH]ncc12)N1CCN(c2ncc(C(F)(F)F)cn2)CC1` [Compound 82], the negative logarithm of the IC50 (pIC50) is at least 7.00. With `CC1CN(c2ccc(C#N)cn2)CCN1C(=O)CCOCCc1cccc2c(=O)[nH]ncc12` (centres unmarked) [Compound 85] the figure was at least 7.00; with `CC1CN(c2ncc(C(F)(F)F)cn2)CCN1C(=O)CCOCCc1cccc2c(=O)[nH]ncc12` (centres unmarked) [Compound 87], at least 7.00. Regarding `CC1CN(c2ncc(C(F)(F)F)cn2)CCN1C(=O)CCOCCc1cccc2c(=O)[nH]ncc12` (centres unmarked) [Compound 88], the pIC50 is at least 7.00. With `CC1CN(C(=O)CCOCCc2cccc3c(=O)[nH]ncc23)CCN1c1ncc(C(F)(F)F)cn1` (centres unmarked) [Compound 89] the figure was at least 7.00; with `CC1CN(C(=O)CCOCCc2cccc3c(=O)[nH]ncc23)CCN1c1ncc(C(F)(F)F)cn1` (centres unmarked) [Compound 90], at least 7.00.

As for `CC1CN(C(=O)CCOCCc2cccc3c(=O)[nH]ncc23)CCN1c1ccc(C#N)cn1` (centres unmarked) [Compound 91], the pIC50 was at least 7.00. On to `N#Cc1ccc(N2CCN(C(=O)CCOCCn3ncc4c(=O)[nH]ncc43)CC2)nc1` [Compound 92], for which the pIC50 was 6.00 to 7.00. With `N#Cc1ccc(N2CCN(C(=O)c3cccc(OCc4cccc5c(=O)[nH]ncc45)c3)CC2)nc1` [Compound 93] the figure was 5.00 to 6.00; with `O=C(c1cccc(OCc2cccc3c(=O)[nH]ncc23)c1)N1CCN(c2ncc(C(F)(F)F)cn2)CC1` [Compound 94], 5.00 to 6.00.

On to `O=C(CCOCCc1cccc2c(=O)[nH]ncc12)N1CCN(c2ccc(F)cn2)CC1` [Compound 95], for which the pIC50 is 6.00 to 7.00. For the compound `O=C(CCOCCc1cccc2c(=O)[nH]ncc12)N1CCN(c2ccc(Cl)cn2)CC1` [Compound 96], the pIC50 was at least 7.00.

As for `O=C(CCOCCc1cccc2c(=O)[nH]ncc12)N1CCN(c2ccc(C(F)F)cn2)CC1` [Compound 97], the negative logarithm of the IC50 (pIC50) is at least 7.00.

Take `O=C(CCOCCc1cccc2c(=O)[nH]ncc12)N1CCN(c2ccc(C(F)(F)F)cn2)CC1` [Compound 98, 5-(2-(3-oxo-3-(4-(5-(trifluoromethyl)pyridin-2-yl)piperazin-1-yl)propoxy)ethyl)phthalazin-1(2H)-one]: the pIC50 was at least 7.00. Consider `O=C(CCOCCc1cccc2c(=O)[nH]ncc12)N1CCN(c2ncc(F)cn2)CC1` [Compound 99], for which the pIC50 is at least 7.00. Next, `O=C(CCOCCc1cccc2c(=O)[nH]ncc12)N1CCN(c2ncc(Cl)cn2)CC1` [Compound 100]: at least 7.00; `O=C(CCOCCc1cccc2c(=O)[nH]ncc12)N1CCN(c2ncc(C(F)F)cn2)CC1` [Compound 101]: at least 7.00; `N#Cc1cnc(N2CCN(C(=O)CCOCCc3cccc4c(=O)[nH]ncc34)CC2)nc1` [Compound 102]: at least 7.00. Regarding `O=C(CCOCCc1cccc2c(=O)[nH]ncc12)N1CCN(c2ccccn2)CC1` [Compound 103], the pIC50 is 6.00 to 7.00. Turning to `O=C(CCOCCc1cccc2c(=O)[nH]ncc12)N1CCN(c2ncccn2)CC1` [Compound 104], the pIC50 was 6.00 to 7.00. `O=C(CCOCCc1cccc2c(=O)[nH]ncc12)N1CCN(c2cnc(C(F)(F)F)cn2)CC1` [Compound 105]: the pIC50 was at least 7.00. Consider `O=C(CCOCCc1cccc2c(=O)[nH]ncc12)N1CCN(c2ncc(C(F)(F)F)s2)CC1` [Compound 106], for which the negative-log IC50 (pIC50) was at least 7.00. As to `O=C(COCCc1cccc2c(=O)[nH]ncc12)NC1CCN(c2ncc(C(F)(F)F)cn2)CC1` [Compound 107], the pIC50 is at least 7.00. Turning to `CN(C(=O)COCCc1cccc2c(=O)[nH]ncc12)C1CCN(c2ncc(C(F)(F)F)cn2)CC1` [Compound 108], the pIC50 is at least 7.00. `CN(C(=O)COCCc1cccc2c(=O)[nH]ncc12)C1CN(c2ncc(C(F)(F)F)cn2)C1` [Compound 109]: the pIC50 was 5.00 to 6.00. With `O=C(NCCOCc1cccc2c(=O)[nH]ncc12)C1CCN(c2ncc(C(F)(F)F)cn2)CC1` [Compound 110], the pIC50 was 6.00 to 7.00. Next, `N#Cc1ccc(N2CCN(C(=O)CCOCCc3cc(C#N)cc4c(=O)[nH]ncc34)CC2)nc1` [Compound 111]: 6.00 to 7.00; `N#Cc1cc(CCOCCC(=O)N2CCN(c3ncc(C(F)(F)F)cn3)CC2)c2cn[nH]c(=O)c2c1` [Compound 112]: 6.00 to 7.00. Consider `CS(=O)(=O)c1ccc(N2CCN(C(=O)CCOCCc3cccc4c(=O)[nH]ncc34)CC2)nc1` [Compound 113], for which the pIC50 is 6.00 to 7.00. Consider `O=C(CCOCCc1cccc2c(=O)[nH]ncc12)N1CCN(c2ccc(OC(F)(F)F)cn2)CC1` [Compound 114], for which the pIC50 was at least 7.00. `O=C(CCOCCc1cccc2c(=O)[nH]ncc12)N1CCC(c2ncc(Cl)cn2)CC1` [Compound 115]: the pIC50 is 6.00 to 7.00. For the compound `N#Cc1ccc(OC2CCN(C(=O)CCOCCc3cccc4c(=O)[nH]ncc34)C2)nc1` (centres unmarked) [Compound 116], the pIC50 was 5.00 to 6.00. With `O=C1NCCc2c(NCCOCC(=O)N3CCN(c4ncc(C(F)(F)F)cn4)CC3)cccc21` [Compound 117] the figure was 5.00 to 6.00; with `O=C(CCOCCc1cccc2c(=O)[nH]ncc12)N1CCC(c2ccc(Cl)cn2)CC1` [Compound 118], 6.00 to 7.00; with `CC(COCCC(=O)N1CCN(c2ncc(C(F)(F)F)cn2)CC1)c1cc(F)cc2c(=O)[nH]ncc12` (centres unmarked) [Compound 119], 5.00 to 6.00. With `CC(COCCC(=O)N1CCN(c2ncc(C(F)(F)F)cn2)CC1)c1cc(F)cc2c(=O)[nH]ncc12` (centres unmarked) [Compound 120] the figure was at least 7.00; with `O=C1NC(=O)c2c(CCOCCC(=O)N3CCN(c4ncc(C(F)(F)F)cn4)CC3)cccc21` [Compound 121], 6.00 to 7.00. Next, `CC(OCCCC(=O)N1CCN(c2ncc(C(F)(F)F)cn2)CC1)c1cccc2c(=O)[nH]ncc12` (centres unmarked) [Compound 123]: at least 7.00.

In the case of `O=C(CCCOCc1cccc2c(=O)[nH]ncc12)N1CCN(c2ncc(C(F)(F)F)cn2)CC1` [Compound 124], the pIC50 is at least 7.00. For the compound `O=C(CCOCCn1c(CO)cc2c(=O)[nH]ncc21)N1CCN(c2ncc(C(F)(F)F)cn2)CC1` [Compound 125], the pIC50 was at least 7.00. With `CC1CCc2c(cn[nH]c2=O)N1CCOCCC(=O)N1CCN(c2ncc(C(F)(F)F)cn2)CC1` (centres unmarked) [Compound 126], the negative-log IC50 (pIC50) was 6.00 to 7.00. Take `Cc1nn(CCOCCC(=O)N2CCN(c3ncc(C(F)(F)F)cn3)CC2)c2cn[nH]c(=O)c12` [Compound 127]: the pIC50 is at least 7.00.

With `O=C1NCCn2c(CCOCCC(=O)N3CCN(c4ncc(C(F)(F)F)cn4)CC3)ccc21` [Compound 128], the pIC50 was 6.00 to 7.00. Regarding `CC(OCCCC(=O)N1CCN(c2ncc(C(F)(F)F)cn2)CC1)c1cc(F)cc2c(=O)[nH]ncc12` (centres unmarked) [Compound 129], the negative-log IC50 (pIC50) is at least 7.00.

As to `O=C(CCOCCn1cc(C(F)(F)F)c2c(=O)[nH]ncc21)N1CCN(c2ncc(C(F)(F)F)cn2)CC1` [Compound 131, 1-(2-(3-oxo-3-(4-(5-(trifluoromethyl)pyrimidin-2-yl)piperazin-1-yl)propoxy)ethyl)-3-(trifluoromethyl)-1,5-dihydro-4H-pyrrolo[2,3-d]pyridazin-4-one], the pIC50 is at least 7.00. For `O=C(CCOCCn1ncc2c(=O)[nH]ncc21)N1CCN(c2ccc(C(F)(F)F)cn2)CC1` [Compound 132], the pIC50 was at least 7.00. As to `O=C(CCOCCn1ncc2c(=O)[nH]ncc21)N1CCN(c2ccc(Cl)cn2)CC1` [Compound 133], the pIC50 was at least 7.00.

In the case of `Cc1cc(CCOCCC(=O)N2CCN(c3ncc(C(F)(F)F)cn3)CC2)n2c1C(=O)NCC2` [Compound 134], the pIC50 is at least 7.00.

Regarding `COCc1cc2c(=O)[nH]ncc2n1CCOCCC(=O)N1CCN(c2ncc(C(F)(F)F)cn2)CC1` [Compound 135], the pIC50 was 6.00 to 7.00. For the compound `NCc1cc2c(=O)[nH]ncc2n1CCOCCC(=O)N1CCN(c2ncc(C(F)(F)F)cn2)CC1` [Compound 136], the pIC50 is 6.00 to 7.00.

On to `CC1CN(C(=O)CCOCCn2ncc3c(=O)[nH]ncc32)CCN1c1ncc(C(F)(F)F)cn1` (centres unmarked) [Compound 137], for which the pIC50 is at least 7.00. With `CC1CN(C(=O)CCOCCn2ncc3c(=O)[nH]ncc32)CCN1c1ncc(C(F)(F)F)cn1` (centres unmarked) [Compound 138], the pIC50 was at least 7.00. On to `O=C(CCOCCc1cccc2c(=O)[nH]ncc12)N1CCC(c2nc3ccccc3o2)CC1` [Compound 139], for which the pIC50 was at least 7.00.

On to `O=C(CCOCCc1cccc2c(=O)[nH]ncc12)N1CCC(c2nc3ccccc3s2)CC1` [Compound 140], for which the pIC50 was at least 7.00. For `O=C(CCOCCc1cccc2c(=O)[nH]ncc12)N1CCN(c2nc3ccccc3s2)CC1` [Compound 141], the pIC50 was at least 7.00. On to `CC1CN(c2ncc(C(F)(F)F)cn2)CCN1C(=O)CCOCCn1ncc2c(=O)[nH]ncc21` (centres unmarked) [Compound 142], for which the pIC50 is at least 7.00. On to `CC1CN(c2ncc(C(F)(F)F)cn2)CCN1C(=O)CCOCCn1ncc2c(=O)[nH]ncc21` (centres unmarked) [Compound 143], for which the pIC50 is at least 7.00. `O=C(CCOCCc1csc2c(=O)[nH]c(=O)[nH]c12)N1CCN(c2ncc(C(F)(F)F)cn2)CC1` [Compound 144]: the pIC50 is at least 7.00.

On to `O=C1NCCCc2c(CCOCCC(=O)N3CCN(c4ncc(C(F)(F)F)cn4)CC3)cccc21` [Compound 145], for which the pIC50 is 5.00 to 6.00.

In the case of `O=C(CCOCCc1cccc2c(=O)[nH]ncc12)N1CCN(c2nc3ccccc3o2)CC1` [Compound 146], the pIC50 is at least 7.00. Consider `O=C(CCOCCn1ncc2c(=O)[nH]ncc21)N1CCN(c2ncc(Cl)cn2)CC1` [Compound 147], for which the pIC50 is at least 7.00. On to `O=C(CCOCCc1cccc2c(=O)[nH]ncc12)N1CCN(c2ncc(C(F)(F)F)cn2)C(CO)C1` (centres unmarked) [Compound 148], for which the negative-log IC50 (pIC50) was at least 7.00.

The values above are taken from patent publication US20240217968A1, “PHARMACEUTICAL COMPOUND” (DUKE STREET BIO LIMITED, priority 2021, published 2024).
